Measurements published in patent publication EP4810500A1, “IMIDAZOL-2-ONE DERIVATIVE AND USE THEREOF IN MEDICINE” (Haisco Pharmaceutical Group Co., Ltd., priority 2023, dated 2025).

Molecular target: GLP-1R (Homo sapiens, UniProt P43220)
Test: In vitro activity assay (cAMP HTRF, HEK293-CRE-luc-GLP-1R cells)
Format: cell-based
Parameters: expressed in transfected cells; host or cells: HEK293 (HEK293-CRE-luc-GLP-1R)
Conditions: cAMP HTRF 665 nm/620 nm, 1 h incubation
Procedure: HEK293-CRE-luc-GLP-1R cells were seeded into a 384-well cell culture plate (Greiner #781946) at a certain cell density (5 µL/well). 5 µl/well of 2× working solution was added to the 384-well microplate. The microplate was sealed with parafilm and incubated in a 37°C 5% CO2 incubator (Thermo) for 1 h. Subsequently, the detection was performed using the cAMP-GS HIRANGE KIT (PerkinElmer, 62AM6PEB), and detection reagents were prepared according to the kit instruction manual. After the incubation, the detection reagents were added to the 384-well microplate, and the microplate was incubated for 1 h at room temperature in the dark. HTRF signals at 665 nm and 620 nm were then measured using a multimode microplate reader. Data were exported from the microplate reader in Excel format. GraphPad Prism was opened. The logarithm of the sample concentration was calculated. Using the logarithm of concentration as the x-axis and the 665 nm/620 nm ratio as the y-axis, four-parameter logistic fitting was performed to obtain the EC50 value of the curve. Table 1: EC50 of compounds against GLP-1

Sequence of GLP-1R (P43220 24-463): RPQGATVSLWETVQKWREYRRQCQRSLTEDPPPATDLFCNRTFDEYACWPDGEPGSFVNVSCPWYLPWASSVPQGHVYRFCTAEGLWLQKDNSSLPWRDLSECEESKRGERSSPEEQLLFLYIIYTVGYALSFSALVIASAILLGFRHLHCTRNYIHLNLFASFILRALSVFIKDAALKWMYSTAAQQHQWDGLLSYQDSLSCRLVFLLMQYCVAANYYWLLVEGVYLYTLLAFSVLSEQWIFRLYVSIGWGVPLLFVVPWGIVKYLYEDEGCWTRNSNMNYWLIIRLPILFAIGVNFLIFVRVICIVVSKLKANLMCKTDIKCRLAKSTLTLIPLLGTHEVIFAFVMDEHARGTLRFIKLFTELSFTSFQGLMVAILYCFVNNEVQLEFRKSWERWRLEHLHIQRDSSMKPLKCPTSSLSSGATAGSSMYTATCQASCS

Structure (SMILES) | EC50
C=C(F)c1cc(-n2nc3c(c2-n2ccn(-c4ccc5c(c4)N(C)C(=O)C54CCOCC4)c2=O)[C@H](C)N(C(=O)c2cc4cc([C@H]5CCOC(C)(C)C5)ccc4n2[C@@]2(c4noc(=O)[nH]4)C[C@@H]2C)CC3)ccc1F [Compound 52] | < 1 nM
COP(=O)(OC)N1CCC2(CC1)C(=O)N(C)c1cc(-n3ccn(-c4c5c(nn4-c4cc(C)c(F)c(C)c4)CCN(C(=O)c4cc6cc([C@H]7CCOC(C)(C)C7)ccc6n4[C@@]4(c6noc(=O)[nH]6)C[C@@H]4C)[C@H]5C)c3=O)ccc12 [Compound 33] | < 1 nM
[2H]C([2H])([2H])N1C(=O)C2(CCOCC2)c2ccc(-n3ccn(-c4c5c(nn4-c4ccc(F)c(C(=C)F)c4)CCN(C(=O)c4cc6cc([C@H]7CCOC(C)(C)C7)ccc6n4[C@@]4(c6noc(=O)[nH]6)C[C@@H]4C)[C@H]5C)c3=O)cc21 [Compound 53] | < 1 nM
C[C@H]1c2c(nn(-c3ccc(F)c(C4(F)CC4)c3)c2-n2ccn(-c3ccc4c(c3F)N(C)C(=O)C43CCOCC3)c2=O)CCN1C(=O)c1cc2cc(C3CCOCC3)ccc2n1[C@@]1(c2noc(=O)[nH]2)C[C@@H]1C [Compound 49] | < 1 nM
Cc1cc(-n2nc3c(c2-n2ccn(-c4ccc5c(c4)N(C)C(=O)C54CCOCC4)c2=O)[C@H](C)N(C(=O)c2cc4cc(C5CCOCC5)ccc4n2[C@@]2(c4noc(=O)[nH]4)C[C@@H]2C)CC3)cc(C)c1F [Compound 47] | < 1 nM
Cc1cc(-n2nc3c(c2-n2ccn(-c4ccc5c(c4)N(C)C(=O)C54CCN(S(=O)(=O)C5CC5)CC4)c2=O)[C@H](C)N(C(=O)c2cc4cc([C@H]5CCOC(C)(C)C5)ccc4n2[C@@]2(c4noc(=O)[nH]4)C[C@@H]2C)CC3)cc(C)c1F [Compound 20] | < 1 nM
Cc1cc(-n2nc3c(c2-n2ccn(-c4ccc5c(c4)N(C)C(=O)C54CCN(C(=O)[C@@H]5C[C@H]5F)CC4)c2=O)[C@H](C)N(C(=O)c2cc4cc([C@H]5CCOC(C)(C)C5)ccc4n2[C@@]2(c4noc(=O)[nH]4)C[C@@H]2C)CC3)cc(C)c1F [Compound 13] | < 1 nM
Cc1cc(-n2nc3c(c2-n2ccn(-c4ccc5c(c4)N(C)C(=O)C54CCN(C(=O)C5(CF)CC5)CC4)c2=O)[C@H](C)N(C(=O)c2cc4cc([C@H]5CCOC(C)(C)C5)ccc4n2[C@@]2(c4noc(=O)[nH]4)C[C@@H]2C)CC3)cc(C)c1F [Compound 35] | < 1 nM
Cc1cc(-n2nc3c(c2-n2ccn(-c4ccc5c(c4)N(C)C(=O)C54CCCC4)c2=O)[C@H](C)N(C(=O)c2cc4cc([C@H]5CCOC(C)(C)C5)ccc4n2[C@@]2(c4noc(=O)[nH]4)C[C@@H]2C)CC3)cc(C)c1F [Compound 5] | < 1 nM
C[C@H]1c2c(nn(-c3ccc(F)c(C4(F)CC4)c3)c2-n2ccn(-c3ccc4c(c3F)N(C)C(=O)C43CCOCC3)c2=O)CCN1C(=O)c1cc2cc([C@H]3CCOC(C)(C)C3)ccc2n1[C@@]1(c2noc(=O)[nH]2)C[C@@H]1C [Compound 46] | < 1 nM
Cc1cc(-n2nc3c(c2-n2ccn(-c4ccc5c(c4)N(C)C(=O)C54CCN(C(=O)c5cnn(C(F)F)c5)CC4)c2=O)[C@H](C)N(C(=O)c2cc4cc([C@H]5CCOC(C)(C)C5)ccc4n2[C@@]2(c4noc(=O)[nH]4)C[C@@H]2C)CC3)cc(C)c1F [Compound 30] | < 1 nM
Cc1cc(-n2nc3c(c2-n2ccn(-c4ccc5c(c4)N(C)C(=O)C54CCN(C(=O)N[C@@H]5C[C@@H]5F)CC4)c2=O)[C@H](C)N(C(=O)c2cc4cc([C@H]5CCOC(C)(C)C5)ccc4n2[C@@]2(c4noc(=O)[nH]4)C[C@@H]2C)CC3)cc(C)c1F [Compound 17] | < 1 nM
C[C@H]1c2c(nn(-c3ccc(F)c(C4CC4)c3)c2-n2ccn(-c3ccc4c(c3F)N(C)C(=O)C43CCOCC3)c2=O)CCN1C(=O)c1cc2cc([C@H]3CCOC(C)(C)C3)ccc2n1[C@@]1(c2noc(=O)[nH]2)C[C@@H]1C [Compound 42] | < 1 nM
Cc1cc(-n2nc3c(c2-n2ccn(-c4ccc5c(c4)N(C)C(=O)C54CCN(C(=O)C56CC(F)(C5)C6)CC4)c2=O)[C@H](C)N(C(=O)c2cc4cc([C@H]5CCOC(C)(C)C5)ccc4n2[C@@]2(c4noc(=O)[nH]4)C[C@@H]2C)CC3)cc(C)c1F [Compound 26] | < 1 nM
Cc1cc(-n2nc3c(c2-n2ccn(-c4ccc5c(c4)N(C)C(=O)C54CCN(C(=O)C5(c6ccccn6)CC5)CC4)c2=O)[C@H](C)N(C(=O)c2cc4cc([C@H]5CCOC(C)(C)C5)ccc4n2[C@@]2(c4noc(=O)[nH]4)C[C@@H]2C)CC3)cc(C)c1F [Compound 23] | < 1 nM
Cc1cc(-n2nc3c(c2-n2ccn(-c4ccc5c(c4)N(C)C(=O)C54CCN(C(=O)C5CCN(C(=O)C6CC6)CC5)CC4)c2=O)[C@H](C)N(C(=O)c2cc4cc([C@H]5CCOC(C)(C)C5)ccc4n2[C@@]2(c4noc(=O)[nH]4)C[C@@H]2C)CC3)cc(C)c1F [Compound 29] | < 1 nM

Structure (SMILES) | EC50
[2H]C([2H])([2H])N1C(=O)C2(CCOCC2)c2ccc(-n3ccn(-c4c5c(nn4-c4cc(C)c(F)c(C)c4)CCN(C(=O)c4cc6cc(C7CCOCC7)ccc6n4[C@@]4(c6noc(=O)[nH]6)C[C@@H]4C)[C@H]5C)c3=O)cc21 [Compound 58] | < 1 nM
[2H]C([2H])([2H])N1C(=O)C2(CCN(S(=O)(=O)C3CC3)CC2)c2ccc(-n3ccn(-c4c5c(nn4-c4cc(C)c(F)c(C)c4)CCN(C(=O)c4cc6cc([C@H]7CCOC(C)(C)C7)ccc6n4[C@@]4(c6noc(=O)[nH]6)C[C@@H]4C)[C@H]5C)c3=O)cc21 [Compound 38] | < 1 nM
Cc1cc(-n2nc3c(c2-n2ccn(-c4ccc5c(c4F)N(C)C(=O)C54CCOCC4)c2=O)[C@H](C)N(C(=O)c2cc4cc(C5CCOCC5)ccc4n2[C@@]2(c4noc(=O)[nH]4)C[C@@H]2C)CC3)cc(C)c1F [Compound 56] | < 1 nM
[2H]C([2H])([2H])N1C(=O)C2(CCOCC2)c2ccc(-n3ccn(-c4c5c(nn4-c4ccc(F)c(C6(F)CC6)c4)CCN(C(=O)c4cc6cc([C@H]7CCOC(C)(C)C7)ccc6n4[C@@]4(c6noc(=O)[nH]6)C[C@@H]4C)[C@H]5C)c3=O)c(F)c21 [Compound 45] | < 1 nM
Cc1cc(-n2nc3c(c2-n2ccn(-c4ccc5c(c4)N(C)C(=O)C54CCN(C(=O)COCC5CC5(F)F)CC4)c2=O)[C@H](C)N(C(=O)c2cc4cc([C@H]5CCOC(C)(C)C5)ccc4n2[C@@]2(c4noc(=O)[nH]4)C[C@@H]2C)CC3)cc(C)c1F (some centres unmarked) [Compound 37] | < 1 nM
[2H]C([2H])([2H])N1C(=O)C2(CCOCC2)c2ccc(-n3ccn(-c4c5c(nn4-c4cc(C)c(F)c(C)c4)CCN(C(=O)c4cc6cc([C@H]7CCOC(C)(C)C7)ccc6n4[C@@]4(c6noc(=O)[nH]6)C[C@@H]4C)[C@H]5C)c3=O)c(F)c21 [Compound 8] | < 1 nM
Cc1cc(-n2nc3c(c2-n2ccn(-c4ccc5c(c4)N(C)C(=O)C54CCN(C(=O)c5cnn(C6CC6)c5)CC4)c2=O)[C@H](C)N(C(=O)c2cc4cc([C@H]5CCOC(C)(C)C5)ccc4n2[C@@]2(c4noc(=O)[nH]4)C[C@@H]2C)CC3)cc(C)c1F [Compound 25] | < 1 nM
[2H]C([2H])([2H])N1C(=O)C2(CCN(C(=O)C3C4COCC43)CC2)c2ccc(-n3ccn(-c4c5c(nn4-c4cc(C)c(F)c(C)c4)CCN(C(=O)c4cc6cc([C@H]7CCOC(C)(C)C7)ccc6n4[C@@]4(c6noc(=O)[nH]6)C[C@@H]4C)[C@H]5C)c3=O)cc21 (some centres unmarked) [Compound 39] | < 1 nM
Cc1cc(-n2nc3c(c2-n2ccn(-c4ccc5c(c4)N(C)C(=O)C54CCN(C(=O)c5cnn(CC6CC6)c5)CC4)c2=O)[C@H](C)N(C(=O)c2cc4cc([C@H]5CCOC(C)(C)C5)ccc4n2[C@@]2(c4noc(=O)[nH]4)C[C@@H]2C)CC3)cc(C)c1F [Compound 32] | < 1 nM
Cc1cc(-n2nc3c(c2-n2ccn(-c4ccc5c(c4)N(C)C(=O)C54CCN(C(=O)C5C6COCC65)CC4)c2=O)[C@H](C)N(C(=O)c2cc4cc([C@H]5CCOC(C)(C)C5)ccc4n2[C@@]2(c4noc(=O)[nH]4)C[C@@H]2C)CC3)cc(C)c1F (some centres unmarked) [Compound 22] | < 1 nM
[2H]C([2H])([2H])N1C(=O)C2(CCOCC2)c2ccc(-n3ccn(-c4c5c(nn4-c4ccc(F)c(C6CC6)c4)CCN(C(=O)c4cc6cc([C@H]7CCOC(C)(C)C7)ccc6n4[C@@]4(c6noc(=O)[nH]6)C[C@@H]4C)[C@H]5C)c3=O)c(F)c21 [Compound 43] | < 1 nM
[2H]C([2H])([2H])N1C(=O)C2(CCOCC2)c2ccc(-n3ccn(-c4c5c(nn4-c4ccc(F)c(C6(F)CC6)c4)CCN(C(=O)c4cc6cc([C@H]7CCOC(C)(C)C7)ccc6n4[C@@]4(c6noc(=O)[nH]6)C[C@@H]4C)[C@H]5C)c3=O)cc21 [Compound 44] | < 1 nM
[2H]C([2H])([2H])N1C(=O)C2(CCOCC2)c2ccc(-n3ccn(-c4c5c(nn4-c4ccc(F)c(C6(F)CC6)c4)CCN(C(=O)c4cc6cc(C7CCOCC7)ccc6n4[C@@]4(c6noc(=O)[nH]6)C[C@@H]4C)[C@H]5C)c3=O)c(F)c21 [Compound 51] | < 1 nM
Cc1cc(-n2nc3c(c2-n2ccn(-c4ccc5c(c4)N(C)C(=O)C54CCN(C(=O)C5COC5)CC4)c2=O)[C@H](C)N(C(=O)c2cc4cc([C@H]5CCOC(C)(C)C5)ccc4n2[C@@]2(c4noc(=O)[nH]4)C[C@@H]2C)CC3)cc(C)c1F [Compound 18] | < 1 nM
[2H]C([2H])([2H])N1C(=O)C2(CCOCC2)c2ccc(-n3ccn(-c4c5c(nn4-c4cc(C)c(F)c(C)c4)CCN(C(=O)c4cc6cc(C7CCOCC7)ccc6n4[C@@]4(c6noc(=O)[nH]6)C[C@@H]4C)[C@H]5C)c3=O)c(F)c21 [Compound 57] | < 1 nM
Cc1cc(-n2nc3c(c2-n2ccn(-c4ccc5c(c4F)N(C)C(=O)C54CCOCC4)c2=O)[C@H](C)N(C(=O)c2cc4cc([C@H]5CCOC(C)(C)C5)ccc4n2[C@@]2(c4noc(=O)[nH]4)C[C@@H]2C)CC3)cc(C)c1F [Compound 7] | < 1 nM
